According to patent publication US20080269251A1, “Substituted Pyrazinone Derivatives as Alpha2C-Adrenoreceptor Antagonists” (priority 2005, published 2008):

Assays:
[1] = biological target: T1, human adrenergic-α2C receptor (Homo sapiens, UniProt P18825); assay: Radioligand binding experiment for hα2C-adrenoceptor ([3H]raulwolscine); details: [3H]raulwolscine 1 nM, 60 minutes at 25° C.; for IC50: read-out: h-α2C pIC50 (converted)
T1 construct: expressed in transfected cells; host or cells: CHO cells, stably transfected; membrane preparation
T1 sequence (P18825 1-462): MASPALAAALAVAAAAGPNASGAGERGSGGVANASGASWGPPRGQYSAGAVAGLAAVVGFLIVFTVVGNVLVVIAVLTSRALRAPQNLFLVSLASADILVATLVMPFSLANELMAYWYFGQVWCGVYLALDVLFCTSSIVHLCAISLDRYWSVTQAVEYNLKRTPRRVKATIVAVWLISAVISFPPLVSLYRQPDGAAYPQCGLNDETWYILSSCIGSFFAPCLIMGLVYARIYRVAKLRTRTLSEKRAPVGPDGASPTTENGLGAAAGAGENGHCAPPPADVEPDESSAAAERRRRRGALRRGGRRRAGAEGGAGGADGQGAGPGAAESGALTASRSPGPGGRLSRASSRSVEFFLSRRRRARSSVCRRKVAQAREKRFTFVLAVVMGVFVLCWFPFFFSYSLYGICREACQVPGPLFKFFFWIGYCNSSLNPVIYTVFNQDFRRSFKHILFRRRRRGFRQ
Description: (§1) The interaction of the compounds of Formula (I) with α2C-adrenoceptor receptors was assessed in in vitro radioligand binding experiments. In general, a low concentration of a radioligand with a high binding affinity for a particular receptor or transporter is incubated with a sample of a tissue preparation enriched in a particular receptor or transporter or with a preparation of cells expressing cloned human receptors in a buffered medium. During the incubation, the radioligand binds to the receptor or transporter. When equilibrium of binding is reached, the receptor bound radioactivity is separated from the non-bound radioactivity, and the receptor- or transporter-bound activity is counted. The interaction of the test compounds with the receptor is assessed in competition binding experiments. Various concentrations of the test compound are added to the incubation mixture containing the receptor- or transporter preparation and the radioligand. The test compound in proportion to its binding affinity and its concentration inhibits binding of the radioligand. The radioligand used for […] receptor binding was [^3H]-raulwolscine.
(§2) CHO cells, stabile transfected with human adrenergic-α2A, -α2B or α2C receptor cDNA, were cultured in Dulbecco's Modified Eagle's Medium (DMEM)/Nutrient mixture Ham's F12 (ratio 1:1)(Gibco, Gent-Belgium) supplemented with 10% heat inactivated fetal calf serum (Life Technologies, Merelbeke-Belgium) and antibiotics (100 IU/ml penicillin G, 100 μg/ml streptomycin sulphate, 110 μg/ml pyruvic acid and 100 μg/ml L-glutamine). One day before collection, cells were induced with 5 mM sodiumbutyrate. Upon 80-90% of confluence, cells were scraped in phosphate buffered saline without Ca^2+ and Mg^2+ and collected by centrifugation at 1500×g for 10 minutes. The cells were homogenised in Tris-HCl 50 mM using an Ultraturrax homogenizer and centrifuged for 10 minutes at 23,500×g. The pellet was washed once by resuspension and rehomogenization and the final pellet was resuspended in Tris-HCl, divided in 1 ml aliquots and stored at −70° C.
(§3) Membranes were thawed and re-homogenized in incubation buffer (glycylglycine 25 mM, pH 8.0). In a total volume of 500 μl, 2-10 μg protein was incubated with [^3H]raulwolscine (NET-722) (New England Nuclear, USA) (1 nM final concentration) with or without competitor for 60 minutes at 25° C. followed by rapid filtration over GF/B filter using a Filtermate196 harvester (Packard, Meriden, Conn.). Filters were rinsed extensively with ice-cold rinsing buffer (Tris-HCl 50 mM pH 7.4). Filter-bound radioactivity was determined by scintillation counting in a Topcount (Packard, Meriden, Conn.) and results were expressed as counts per minute (cpm). Non-specific binding was determined in the presence of 1 μM oxymetazoline for hα2A- and hα2B receptors and 1 μM spiroxatrine for hα2C receptors.
(§4) Data from assays in the presence of compound were calculated as a percentage of total binding measured in the absence of test compound. Inhibition curves, plotting percent of total binding versus the log value of the concentration of the test compound, were automatically generated, and sigmoidal inhibition curves were fitted using non-linear regression. The pIC50 values of test compounds were derived from individual curves.

5HT-transporter = biological target: T2, 5HT-transporter (Homo sapiens, UniProt P31645); assay: Binding experiment for the 5HT-transporter ([3H]paroxetine, human platelet membranes); details: [3H]paroxetine 0.5 nM, 60 min at 25° C.; for IC50: read-out: h-5HTT pIC50 (converted)
T2 construct: Human platelet membranes (Oceanix Biosciences Corporation, Hanover, Md., USA) were thawed; tissue Oceanix Biosciences Corporation, Hanover, Md., USA; host or cells: human platelet membranes
Description: as §1
Human platelet membranes (Oceanix Biosciences Corporation, Hanover, Md., USA) were thawed, diluted in buffer (Tris-HCl 50 mM, 120 mM NaCl and 5 mM KCl) and quickly (max 3 s) homogenised with an Ultraturrax homogenizer. […] Incubation was stopped by rapid filtration of the incubation mixture over GF/B filters, pre-wetted with 0.1% polyethyleneamine, using a Filtermate196 harvester (Packard, Meriden, Conn.). Filters were rinsed extensively with ice-cold buffer and radioactivity on the filters was counted in a Topcount liquid scintillation counter (Packard, Meriden, Conn.). Data were expressed as cpm. Imipramine (at 1 μM final concentration) was used to determine the non-specific binding.
as §4

[2] = biological target: T3, human adrenergic-α2A receptor (Homo sapiens, UniProt P08913); assay: Radioligand binding experiment for hα2A-adrenergic receptor ([3H]raulwolscine); details: [3H]raulwolscine 1 nM, 60 minutes at 25° C.; for IC50: read-out: h-α2A pIC50 (converted)
T3 construct: expressed in transfected cells; host or cells: CHO cells, stably transfected; membrane preparation
T3 sequence (P08913 1-465): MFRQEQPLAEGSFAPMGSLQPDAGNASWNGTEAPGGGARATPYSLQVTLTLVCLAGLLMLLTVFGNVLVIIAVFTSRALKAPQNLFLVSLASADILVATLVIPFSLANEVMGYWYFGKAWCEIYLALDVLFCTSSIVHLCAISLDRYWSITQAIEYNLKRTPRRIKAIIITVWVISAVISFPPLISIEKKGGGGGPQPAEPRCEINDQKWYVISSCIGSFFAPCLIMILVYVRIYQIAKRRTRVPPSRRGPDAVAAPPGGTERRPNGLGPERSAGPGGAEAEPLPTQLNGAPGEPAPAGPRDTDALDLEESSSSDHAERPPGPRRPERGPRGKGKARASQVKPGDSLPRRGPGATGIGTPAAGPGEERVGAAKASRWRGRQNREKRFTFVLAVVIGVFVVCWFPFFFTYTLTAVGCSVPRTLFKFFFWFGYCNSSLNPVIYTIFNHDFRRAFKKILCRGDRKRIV
Description: as §1, §2, §3, §4

T2 sequence (P31645 whole entry): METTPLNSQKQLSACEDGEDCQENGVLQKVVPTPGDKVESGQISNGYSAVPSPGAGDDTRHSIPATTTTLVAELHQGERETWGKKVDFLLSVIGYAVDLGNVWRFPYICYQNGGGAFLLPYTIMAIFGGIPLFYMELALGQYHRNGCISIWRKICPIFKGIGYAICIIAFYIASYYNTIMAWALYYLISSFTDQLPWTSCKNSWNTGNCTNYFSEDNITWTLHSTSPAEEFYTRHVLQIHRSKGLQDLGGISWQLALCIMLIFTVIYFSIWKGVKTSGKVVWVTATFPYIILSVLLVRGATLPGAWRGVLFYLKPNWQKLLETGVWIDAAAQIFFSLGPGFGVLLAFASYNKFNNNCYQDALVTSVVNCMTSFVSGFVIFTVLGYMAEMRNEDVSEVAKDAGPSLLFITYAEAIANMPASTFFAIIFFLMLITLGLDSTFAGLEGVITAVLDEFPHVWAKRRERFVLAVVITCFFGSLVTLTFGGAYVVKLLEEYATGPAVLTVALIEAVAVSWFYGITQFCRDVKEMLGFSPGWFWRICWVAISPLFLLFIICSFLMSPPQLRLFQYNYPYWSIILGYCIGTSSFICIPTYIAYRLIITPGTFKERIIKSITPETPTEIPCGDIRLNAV

h-α2C pIC50 [1]	h-5HTT pIC50 (5HT-transporter)	h-α2A pIC50 [2]	IC50 [1]	IC50 (5HT-transporter)	IC50 [2]	Structure (SMILES)
8.1	7.7	6.2	–	–	–	O=C(NCc1ccc(-n2ccnc(NC3CCN(Cc4ccc5ccccc5c4)CC3)c2=O)cc1)C1CCCO1 (racemic) [1-99]
–	–	–	20 nM	20 nM	200 nM	NCc1ccc(-n2ccnc(NC3CCN(Cc4ccc5ccccc5c4)CC3)c2=O)cc1 [1-01]
–	–	–	12.6 nM	63.1 nM	50.1 nM	NCc1ccc(Cn2ccnc(NC3CCN(Cc4ccc5ccccc5c4)CC3)c2=O)cc1 [1-02]
–	–	–	50.1 nM	200 nM	200 nM	NCCCn1ccnc(NC2CCN(Cc3ccc4ccccc4c3)CC2)c1=O [1-03]
–	–	–	25.1 nM	251 nM	251 nM	CNCCCn1ccnc(NC2CCN(Cc3ccc4ccccc4c3)CC2)c1=O [1-04]
–	–	–	10 nM	20 nM	251 nM	CCCNCc1ccc(-n2ccnc(NC3CCN(Cc4ccc5ccccc5c4)CC3)c2=O)cc1 [1-06]
–	–	–	6.31 nM	7.94 nM	126 nM	O=c1c(NC2CCN(Cc3ccc4ccccc4c3)CC2)nccn1-c1ccc(CNCCF)cc1 [1-07]
–	–	–	7.94 nM	10 nM	126 nM	O=c1c(NC2CCN(Cc3ccc4ccccc4c3)CC2)nccn1-c1ccc(CNCCF)c(F)c1 [1-08]
–	–	–	31.6 nM	15.8 nM	398 nM	CCNC(=O)Cc1ccc(-n2ccnc(NC3CCN(Cc4ccc5ccccc5c4)CC3)c2=O)cc1 [1-10]
–	–	–	20 nM	20 nM	501 nM	CCCNC(=O)Cc1ccc(-n2ccnc(NC3CCN(Cc4ccc5ccccc5c4)CC3)c2=O)cc1 [1-11]
–	–	–	31.6 nM	251 nM	200 nM	CN(C)CCCn1ccnc(NC2CCN(Cc3ccc4ccccc4c3)CC2)c1=O [1-12]
–	–	–	63.1 nM	2000 nM	501 nM	CCCN(C)C(=O)Cn1ccnc(NC2CCN(Cc3ccc4ccccc4c3)CC2)c1=O [1-13]
8.1	7.8	6.9	–	–	–	CN(CCF)Cc1ccc(-n2ccnc(NC3CCN(Cc4ccc5ccccc5c4)CC3)c2=O)cc1 [1-14]
–	–	–	126 nM	3160 nM	398 nM	CN(C)C(=O)Cn1ccnc(NC2CCN(Cc3ccc4ccccc4c3)CC2)c1=O [1-15]
–	–	–	25.1 nM	251 nM	316 nM	CN(C(=O)Cn1ccnc(NC2CCN(Cc3ccc4ccccc4c3)CC2)c1=O)C1CCCCC1 [1-16]
–	–	–	39.8 nM	79.4 nM	200 nM	CCCCN(Cc1ccccc1)C(=O)Cn1ccnc(NC2CCN(Cc3ccc4ccccc4c3)CC2)c1=O [1-18]
–	–	–	63.1 nM	79.4 nM	398 nM	O=C(Cn1ccnc(NC2CCN(Cc3ccc4ccccc4c3)CC2)c1=O)NCC(c1ccccc1)c1ccccc1 [1-19]
–	–	–	25.1 nM	100 nM	398 nM	CCOC(CN(Cc1ccccc1)C(=O)Cn1ccnc(NC2CCN(Cc3ccc4ccccc4c3)CC2)c1=O)OCC [1-20]
–	–	–	15.8 nM	15.8 nM	251 nM	COCCN(C)Cc1ccc(-n2ccnc(NC3CCN(Cc4ccc5ccccc5c4)CC3)c2=O)cc1 [1-21]
–	–	–	15.8 nM	15.8 nM	200 nM	COCCNCc1ccc(-n2ccnc(NC3CCN(Cc4ccc5ccccc5c4)CC3)c2=O)cc1 [1-22]
–	–	–	10 nM	6.31 nM	39.8 nM	CCCC(=O)Nc1cccc(-n2ccnc(NC3CCN(Cc4ccc5ccccc5c4)CC3)c2=O)c1 [1-23]
–	–	–	6.31 nM	2.51 nM	–	O=c1c(NC2CCN(Cc3ccc4ccccc4c3)CC2)nccn1-c1ccc(CNCC2CCCO2)cc1 (stereo not shown) [1-79b]
–	–	–	12.6 nM	–	–	O=C1c2ccccc2C(=O)N1CC#CCn1ccnc(NC2CCN(Cc3ccc4ncccc4c3)CC2)c1=O [9-11]
–	–	–	31.6 nM	–	–	O=C1c2ccccc2C(=O)N1CC#CCn1ccnc(NC2CCN(Cc3ccc4ncccc4c3)CC2)c1=O [9-30]
